# Like-named read-outs stand apart in the source and are kept apart here. Where a SMILES comes first, the peptide text is derived from it.
# Tested on: ZIKV (PRVABC59 strain)
# Conditions: for reduction of ZIKV: dose escalation
# Method: We screened frog skin peptides to identify peptides with potentially virucidal activity against ZIKV infection. Briefly, we incubated individual peptides with ZIKV (PRVABC59 strain) for 2 h and then tested viral viability in a focus-forming assay. […] A significant drawback of host defense peptides is that they can be toxic to mammalian cells. To identify non-toxic candidates among the 12 peptides, we measured the toxicity of each peptide against human erythrocytes. […] The C-terminus of Yodha peptide contains three negatively charged amino acids.
# […] This incubated mixture was used to infect Vero cells for 1.5 h at 37 °C. Cells and inoculum were overlaid with 2% methylcellulose solution (OptiMEM; Gibco) and incubated for 72 h at 37 °C. Cells were washed with PBS and fixed with a 1:1 methanol/acetone mixture for 30 min. Cells were blocked with 5% milk/PSB at room temperature for 20 min and incubated with primary antibody (anti-flavivirus mouse 4G2[10] antibody) for 2 h at 37 °C. Then, cells were incubated with secondary antibody (HRP-conjugated goat anti-mouse IgG, Cell Signaling) for 1 h at 37 °C. Cells were developed with TrueBlue Peroxidase Substrate (KPL). Plates were read on a CTL-ImmunoSpot S6 Micro analyzer.
smiles,measurement,setting,value
CC[C@H](C)[C@H](NC(=O)[C@@H](NC(=O)CNC(=O)[C@H](CC(C)C)NC(=O)[C@H](Cc1ccccc1)NC(=O)[C@H](Cc1ccccc1)NC(=O)[C@H](CC(C)C)NC(=O)[C@H](CC(C)C)NC(=O)[C@H](CC(C)C)NC(=O)[C@H](CCSC)NC(=O)[C@@H](N)CO)[C@@H](C)O)C(=O)N[C@@H](CO)C(=O)N[C@@H](CC(C)C)C(=O)N[C@@H](CO)C(=O)N[C@@H](CC(C)C)C(=O)N[C@@H](CS)C(=O)N[C@@H](CCC(N)=O)C(=O)N[C@@H](CC(=O)O)C(=O)N[C@@H](CC(=O)O)C(=O)N[C@@H](CCC(N)=O)C(=O)N[C@@H](CCC(=O)O)C(=O)N[C@@H](CCCNC(=N)N)C(=O)N[C@@H](CS)C(=O)O [Yodha] (H-SMLLLFFLGTISLSLCQDDQERC-OH; N-terminus and C-terminus assumed),reduction of ZIKV,"10 µM peptide, FFA",35%
same,reduction of ZIKV,"20 µM peptide, FFA",50%
same,Viral titers (FFU) after timed exposure,"20 µM peptide, exposure 5 min, 15 min, 30 min, 1 h and 2 h, all time points",significantly decreased
same,reduction of ZIKV,"40 µM peptide, FFA",65%
same,inhibition of ZIKV strain,"50 µM and 100 µM peptide vs OVA control, FFA",inhibited
same,reduction of ZIKV,"80 µM peptide, FFA",80%
same,reduction of ZIKV,"160 µM peptide, FFA",90%
same,IC50,"PRVABC59 strain, 2 h",20 µM
same,time of exposure needed to neutralize / destroy ZIKV,exposure of virus to peptide,≤ 5 min
